Test results published in patent publication US6555523B1, “Use of cirsiliol and derivatives to treat infections” (priority 1999, dated 2003).
Converted amounts (≈) assume the structure as drawn. “And” between values parts separate entries of the source, which are not always exact repeats. Identical values can stand only once.

Columns and labels:
[1] = tested on: parainfluenza HA-1; assay: CPE-inhibition (microscopic) assay, Protocol A2; format: cell-based, parainfluenza virus; settings: HEp-2, cell Hep2 (cell blank for 3-(4′-bromophenyl) coumarin)
[2] = tested on: T, gondii RH; assay: In-vitro anti Toxoplasma gondii activity in HFF, Protocol C; format: cell-based
Experimental: Protocol C—In-vitro testing of anti Toxoplasma gondii activity of Cirsiliol and Naringin. The compounds were tested in an in vitro cell culture assay utilizing human fibroblasts (HFF line) as the host cell. RH strain Toxoplasma gondii that has been transfected with β-galactosidase as a marker for quantitative detection of parasite number (RH Bgal), was used as the challenge organism. The compounds ere dissolved, and then diluted in cell culture medium at least 100 fold for the assays. Controls containing the maximum concentration of solvent used in the assay were run with each test. The active drugs were added and the monolayers were infected immediately at the beginning of each test. Extracellular T. gondii were removed by rinsing the monolayer, and infected host cells remained in contact with the cells for the entire test period. Each test was terminated when at least four parasite doublings could be visually identified in the control monolayers, and parasite numbers were quantitated by standard colorimetric assay for bet galactosidase activity with optical density at 550 nm as the readout. The optical density in this assay has a direct and linear correlation with parasite numbers over a 5-log parasite concentration. Toxicity in the host cells was determined by inspection for cytopathic effects and visual evaluation of cell growth.

[3] = tested on: HIV Ba-L; assay: Anti-HIV assay in fresh human monocyte-macrophages (p24 ELISA), Protocol D2; format: cell-based; settings: Human immunodeficiency virus 1, BAL, Macrophage
Experimental: Protocol D2—Assay in fresh human monocyte-macrophages. […] The cells are placed in a 96-well microtiter plate at 37° C. for 2 hours. Non-adherent cells are removed by vigorously washing six times. […] The cultures are carefully monitored for confluency during this incubation period. Infection of the cells is performed with monocytotropic HIV-1 isolates. High titer pools of each of these viruses are harvested from infected cultures of peripheral blood adherent cells and frozen in 1.0 ml aliquots at −80° C. Monocytemacrophage monolayers are infected at a multiplicity of infection (“MOI”) of 0.1.
(§3) At 2 days post-infection, the medium is decanted and the cultures washed twice with complete medium in order to remove excess virus. Fresh medium alone or medium containing the appropriate concentration of drug is added and incubation continued for an additional five days. XTT staining for cytotoxicity and HIV p24 ELISA assays for production of p24 core antigen are performed on Day 7 post infection. This is performed according the ELISA kit assay manufacturers recommendations. Control curves are generated in each assay to accurately quantitate the amount of capsid protein in each sample. Data is obtained by spectrophotometric analysis at 450 nm using a Molecular Devices Vmax plate reader. P24 concentrations are calculated form the optical density values by use of the Molecular Device software package Soft Max.
Most of the values were based on average values that were obtained from duplicate or triplicate assay wells.

[4] = Drug cytotoxicity by XTT in monocyte-macrophages, Protocol D2; format: cell-based; settings: human; macrophage; D2; naringin solubilised in 35% EtOH; read-out: TC50
Experimental: Protocol D2—Assay in fresh human monocyte-macrophages. […] The cells are placed in a 96-well microtiter plate at 37° C. for 2 hours. Non-adherent cells are removed by vigorously washing six times. […] The cultures are carefully monitored for confluency during this incubation period. Infection of the cells is performed with monocytotropic HIV-1 isolates. […] Monocytemacrophage monolayers are infected at a multiplicity of infection (“MOI”) of 0.1.
as §3

[5] = tested on: Bovine Viral Diarrhea Virus; assay: Plaque formation by Bovine Viral Diarrhea Virus in MDBK cultures; format: cell-based, bovine viral diarrhea virus (BVDV); settings: for Number of plaques: Tests 1-3, control 68; for % Reduction: plaques
Experimental: HCV in vitro assays. No well-accepted model exists for HCV and new compounds for use in the treatment of HCV are frequently tested for activity against bovine viral diarrhea virus (BVDV), a virus which is related to HCV.
A representative compound according to the present invention, naringin (i.e., 7-neohesperidoside, 5, 4′ dihydroxyflavanone) was tested for anti-BVDV activity in MDBK cells.

[6] = tested on: hepatitis C virus; assay: Human HCV clinical trial, one patient (HCV and HIV infected), naringin 4 g orally three times daily: hepatitis C RNA; format: in vivo; settings: for Hepatitis C by PCR log 10: Day 0: 6.5; for Hepatitis C RNA ultraquant: Day 0: 2,871,300, ref. <200
Experimental: (§1) Human HCV clinical trial. A human patient suffering from hepatitis C virus was treated according to the following regimen: initial dosing beginning on Day 0 (see Table C), three times daily, the patient ingested 4 g of naringin orally, and then drank hot tea; in later days, the patient ingested, three times daily, 4 g of naringin mixed in hot tea. This patient also suffered from HIV infection.
(§2) The tables below, labeled part 1 through part 4, show data from this patients' bloodwork on Day 0 (when treatment according to this invention was initiated), Day 3 (3 days after Day 0), Day 6 (6 days after Day 0) and Day 9 (9 days after Day 0). In addition, the tables include data from this patients' bloodwork 72 days before Day 0 (“Day −72”).

[7] = Human HCV clinical trial, one patient (HCV and HIV infected), naringin 4 g orally three times daily: bloodwork and urine values; format: in vivo; settings: for Basophils: Day 0: 0; for Basophils / Eosinophils: ref. 0-5%; for Creatinine: Day 0: 0.5, ref. 0.5-1.2; for Eosinophils: Day 0: 1; for WBC: Day 0: 3.2, ref. 4-11 × 10^3; for RBC: Day 0: 4.7, ref. 3.9-5.1 × 10^6; for Monocytes: Day 0: 5, ref. 0-10%; for Hemoglobin: Day 0: 14, ref. 13.0-17.0; for Lymphocytes: Day 0: 29, ref. 15-50%; for MCH: Day 0: 30; for MCHC: Day 0: 34, ref. 32-36%; for Hematocrit: Day 0: 41.7, ref. 36-46%; for Glucose: Day 0: 76; for SGOT: Day 0: 83; for Platelet Count: Day 0: 96, ref. 150-400 × 10^3; for SGPT: Day 0: 112; for Specific Gravity: ref. 1.005-1.035; for pH: ref. 4.5-7.5; for Acetone, Urine / Bilirubin / Glucose, Urine / Leukocyte esterase / Nitrite / Occult Blood / Protein, Urine: ref. Negative
Experimental: as §1, §2

[8] = tested on: MDBK cells; settings: cattle
Experimental: As a comparison, similar tests were conducted using ribavirin.

[9] = in vitro; settings: human

## C[C@@H]1O[C@@H](O[C@H]2[C@H](Oc3cc(O)c4c(c3)O[C@H](c3ccc(O)cc3)CC4=O)O[C@H](CO)[C@@H](O)[C@@H]2O)[C@H](O)[C@H](O)[C@H]1O [Naringin, 7-neohesperidoside, 5, 4′ dihydroxyflavanone]
[1]
  IC50: 25 µM
[2]
  IC50: > 100 µM
[3]; D2, naringin solubilised in 35% EtOH
  IC50: 86.2 µM
[3]; D2, naringin solubilised in 95% EtOH
  IC50: > 100 µM
[4]
  CC50 at 7 days: > 100 µM
[5]; BVDV plaque formation in MDBK, table footnote, unit from the table's concentration head
  ID50: 631.39 µg/mL (≈ 1090 µM)
[5]; naringin 31.25 μg/mL
  Number of plaques: 65 and 75 and 60
  % Reduction: 2.39%
[5]; naringin 62.50 μg/mL
  Number of plaques: 57 and 65
  % Reduction: 12.64%
[5]; naringin 125.00 μg/mL
  Number of plaques: 52 and 65 and 61
  % Reduction: 13.12%
[5]; naringin 250.00 μg/mL
  Number of plaques: 50 and 58 and 52
  % Reduction: 21.91%
[5]; naringin 500.00 μg/mL
  Number of plaques: 32 and 45 and 42
  % Reduction: 41.92%
[5]; naringin 1000.00 μg/mL
  Number of plaques: 22 and 25 and 14
  % Reduction: 70.22%
[5]; naringin 1500.00 μg/mL
  Number of plaques: 8 and 11
  % Reduction: 86.82%
[5]; naringin 2000.00 μg/mL
  Number of plaques: 4 and 3
  % Reduction: 95.11%
[6]; Day 3
  Hepatitis C by PCR log 10: 6.2
  Hepatitis C RNA ultraquant: 1,500,900 copies/mL
[6]; Day 6
  Hepatitis C by PCR log 10: 5.5
  Hepatitis C RNA ultraquant: 340,540 copies/mL
[6]; Day 9
  Hepatitis C by PCR log 10: 4.9
  Hepatitis C RNA ultraquant: 78,592 copies/mL
[6]; summary in words, Day 0 to Day 9
  patient's hepatitis C PCR values: drastic reduction
[7]; Day 3
  Appearance: Clear
  Color: Yellow
  Basophils: 1%
  Creatinine: 0.5 mg/dL
  Eosinophils: 0%
  WBC: 3.3 × 10^3 /mm^3
  RBC: 4.71 × 10^6 /mm^3
  Monocytes: 10%
  Hemoglobin: 13.9 g/dL
  Lymphocytes: 25%
  MCH: 30 picograms
  MCHC: 34%
  Hematocrit: 40.5%
  Glucose: 98 mg/dL
  SGOT: 62 u/L
  Platelet Count: 104 × 10^3 /mm^3
  SGPT: 102 u/L
  Specific Gravity: 1.024
  pH: 5
  Acetone, Urine: Negative
  Bilirubin: Negative
  Glucose, Urine: Negative
  Leukocyte esterase: Negative
  Nitrite: Negative
  Occult Blood: Negative
  Protein, Urine: Negative
[7]; Day 6
  Appearance: Clear
  Basophils: 1%
  Creatinine: 0.5 mg/dL
  Eosinophils: 1%
  WBC: 3.4 × 10^3 /mm^3
  RBC: 4.6 × 10^6 /mm^3
  Monocytes: 6%
  Hemoglobin: 13.7 g/dL
  Lymphocytes: 28%
  MCH: 30 picograms
  MCHC: 34%
  Hematocrit: 40.1%
  Glucose: 93 mg/dL
  SGOT: 38 u/L
  Platelet Count: 112 × 10^3 /mm^3
  SGPT: 62 u/L
  Specific Gravity: 1.017
  pH: 6
  Acetone, Urine: Negative
  Bilirubin: Negative
  Glucose, Urine: Negative
  Leukocyte esterase: Negative
  Nitrite: Negative
  Occult Blood: Negative
  Protein, Urine: Negative
[7]; summary in words
  patient's SGOT values: drastic reduction
  patient's SGPT values: drastic reduction
[8]
  MTC (minimum cytotoxic drug concentration): > 2000 µg/mL
[9]
  CC50: 100 µM
